Experimental data from patent publication US20250333775A1, “DIAGNOSTIC TEST AND THERAPY FOR PATIENTS WITH AUTO-BREWERY SYNDROME” (The Regents of the University of California, priority 2024, published 2025).

What was measured:
[1] = system: fecal microbiota from patients with clinically documented Auto-brewery Syndrome; assay: Bioreactor cultures of fecal microbiota, ethanol production (ABS patients); format: cell-based, human; conditions: 24 hours
Method: (§1) 100 mg of stool collected from patients during flare and remission and from their household partners was cultured in bioreactor cultures which consisted of 10 mL of Luria Broth (LB) media supplemented with 2 mM glucose and 2 mM cysteine in anaerobic conditions using hungate tubes. This concentration of glucose was chosen to emulate physiologic glucose concentrations in the intestine. Bioreactor cultures were untreated or treated with 0.05% dimethyl sulfoxide (DMSO, vehicle), 10 μg/mL amphotericin B, or 100 μg/mL chloramphenicol. To emulate supraphysiologic concentrations of glucose in the GI tract, patient microbiota was also cultured in LB media supplemented with 100 mM and 200 mM of glucose anaerobically using hungate tubes. Samples were collected at 0, 6, and 24 hours of culturing and ethanol concentration was assessed by high-performance liquid chromatography (HPLC) using a 1260 Infinity IILC system (Agilent, Santa Clara, CA, USA) equipped with an HPX-87H (Biorad, Hercules, CA, USA) or by using an enzyme-based kit (Abcam, in less than 20% of samples, low limit of detection 50 ng/dL).

[2] = system: fecal microbiota from household partners; assay: Bioreactor cultures of fecal microbiota, ethanol production (household partners); format: cell-based, human; conditions: household partner samples, 24 hours; 10 μg/mL amphotericin B or 100 μg/mL chloramphenicol
Method: as §1

[3] = samples from ABS patients, compared with DMSO vehicle control, 100 μg/mL chloramphenicol or 10 μg/mL amphotericin B

C[C@@H]1[C@H](O)[C@@H](C)/C=C/C=C/C=C/C=C/C=C/C=C/C=C/[C@H](O[C@@H]2O[C@H](C)[C@@H](O)[C@H](N)[C@@H]2O)C[C@@H]2O[C@](O)(C[C@@H](O)C[C@@H](O)[C@H](O)CC[C@@H](O)C[C@@H](O)CC(=O)O[C@H]1C)C[C@H](O)[C@H]2C(=O)O [amphotericin B]
ethanol production in bioreactor cultures [1, 3]: did not have a significant effect | ethanol production in bioreactor cultures ([1]; three ABS patient samples during a flare, 10 μg/mL amphotericin B): partially reduced | ethanol production in bioreactor cultures [2]: No significant difference

O=C(N[C@H](CO)[C@H](O)c1ccc([N+](=O)[O-])cc1)C(Cl)Cl [chloramphenicol]
ethanol production in bioreactor cultures [1, 3]: significantly decreased | ethanol production in bioreactor cultures [2]: No significant difference
